Laboratory results as given in patent publication US7666354B2, “Composition for sterilization comprising ω-alkoxyperoxycarboxylic acid” (FUJIFILM Corporation, priority 2004, dated 2010).
Read-outs that look alike come from different tables or passages of the source.

Columns and labels:
[1] = system: Spores of Bacillus subtilis IFO3134; experiment: Evaluation of antimicrobial activity against spores (liquid culture and agar culture after a given reaction time); assay type: cell-based; details: for colony formation, 15 sec / colony formation, 1 min / colony formation, 5 min: Agar culture; for colony formation, 15 sec / bacterial proliferation, 15 sec: reaction time 15 sec; for colony formation, 1 min / bacterial proliferation, 1 min: reaction time 1 min; for colony formation, 5 min / bacterial proliferation, 5 min: reaction time 5 min; for bacterial proliferation, 15 sec / bacterial proliferation, 1 min / bacterial proliferation, 5 min: Liquid culture
Protocol: Antimicrobial activity of the composition of the present invention against spores was evaluated.
Spores of Bacillus subtilis IFO3134 was prepared based on the preparation method of a spores stock solution described in Notification from Ministry of Health, Labour and Welfare, “Ei-nyu(Milk Hygiene)” No. 10, Jan. 29, 1996 (Heisei 8). […] The bacteria were suspended in sterilized water (3 ml), and the suspension was heated at 65° C. for 30 minutes under shaking at 160 rpm to kill trophozoites. Resulting suspension was centrifuged at 3000 rpm, and the supernatant was discarded. Sterilized water (3 ml) was added to the residue to obtain a stock solution of spores. A solution of 1.1×10^9 cfu/mL was prepared using the stock solution and subjected to the following evaluations of antimicrobial activity.
Evaluation of antimicrobial activity was conducted according to the method of Sakagami et al. (J. Antibact. Antifung. Agents., Vol. 26, 605-601, 1998). Specifically, an aqueous solution (225 μl) of each sample which was filtered with 0.2 μm paper filter was added with spores suspension (25 μl) prepared by the above described method. The mixture (concentration of bacteria: 1.1×10^8 cfu/mL) was reacted for a given period of time. From the reaction solution, 2 μL sample was corrected and added to 2 ml of SCDLP culture medium (Nissui Pharmaceutical Co., Ltd.). The medium was cultured at 37° C. under shaking at 160 rpm for 48 hours, and the presence of bacterial growth was examined. At the same time, the reaction solution (25 μL) was added to a mixture solution (225 μL) of 0.1N sodium thiosulfate and 1% catalase to inactivate a peroxycarboxylic acid and hydrogen peroxide. Resulting solution (100 μL) was inoculated to SCDLP culture agar medium (Nissui Pharmaceutical Co., Ltd., 25 mL/petri dish). The medium was cultured at 37° C. for 48 hours, and examined visually for colony formation.
Each solution prepared in Example 1, 2, 3-c, 3-f, and 3-j was diluted with distilled water for injection (Hikari pharmaceutical company) so as to obtain a solution of peroxycarboxylic acid at a concentration of 40 mM, which was used as composition 1, 2, 3, 24, and 28. The compositions were evaluated for their antimicrobial activity using the above described method. Aqueous hydrogen peroxide which contains hydrogen peroxide at a higher concentration than the hydrogen peroxide concentration of the above diluted solutions was separately evaluated in a similar manner, and results are also shown in Table 1.

[2] = Stability Evaluation 1: peracid concentration after mixing carboxylic acid and 50% aqueous hydrogen peroxide (potassium iodide/sodium thiosulfate titration); assay type: physicochemical; details: for peracid concentration in composition, 3 days after mixing: day 3; for peracid concentration in composition, 22 days after mixing: day 22; for peracid concentration in composition, 6 days after mixing: day 6
Excerpt: A carboxylic acid (30 mmol) and 50% aqueous hydrogen peroxide (45 mmol) were mixed, and concentration of generated peracid was quantified by potassium iodide/sodium thiosulfate titration as described in Example 1 at a constant time interval. As the carboxylic acid, 3-methoxypropionic acid and 3-ethoxypropionic acid were used. As a control for comparison, methoxyacetic acid was used.
Numbers in Table 3 indicates peracid concentration (mM) in compositions.

[3] = Stability Evaluation 2: pH dependency of peroxycarboxylic acid concentration; assay type: physicochemical; details: 80 mM solution, FIG. 1
Protocol: (§1) A aqueous composition of the peroxycarboxylic acid which was obtained in the above described Synthesis of compound 3 (1.6 M, 100 ml) was diluted by addition of water (50 ml), and the mixture was left at 25° C. for 7 days. Quantification was conducted by potassium iodide/sodium thiosulfate titration as described in Example 1.
The aqueous composition was diluted with water to adjust the peroxycarboxylic acid concentration at 80 mM. Three solutions of pH 1.7, 3.0, and 5.0 were prepared, and peroxycarboxylic acid concentration was quantified by potassium iodide/sodium thiosulfate titration as described in Example 1 at a constant time intervals. The pH was adjusted by addition of dipotassium hydrogen phosphate. Assuming that peroxycarboxylic acid concentration of 80 mM is 100%, changes in peroxycarboxylic acid concentration are shown in FIG. 1.

[4] = Judgment whether the composition meets the criteria of the fifth class of hazardous material in the Fire Defense Law (thermal analysis, pressure container test); details: aqueous composition: Compound 3 7% w/w, hydrogen peroxide 13% w/w, 3-propoxypropionic acid 32% w/w, water 48% w/w
Protocol: as §1, with “mixed with” for “diluted by addition of”, “ml) for dilution,” for “ml),”, “14 days. The solution was further kept at 4° C. for 10” for “7”
The above aqueous composition was subjected to judgment whether or not the composition meets the criteria of the fifth class of hazardous material in the Fire Defense Law.

[5] = system: spores; details: recently reported; cited from earlier work
[6] = system: Spores of Bacillus subtilis IFO3134; experiment: Evaluation of antimicrobial activity against spores (liquid culture and agar culture after a given reaction time); assay type: cell-based; details: Table 2, Acecide, 40 mM peracetic acid
[7] = cited from earlier work
[8] = carboxylic acid 30 mmol + 50% aqueous hydrogen peroxide 45 mmol
[9] = Table 2, Acecide, 40 mM peracetic acid

COCCC(=O)OO [Compound 1, 3-methoxyperoxypropionic acid]
colony formation, 15 sec ([1]; peroxycarboxylic acid 40 mM): +
colony formation, 1 min ([1]; peroxycarboxylic acid 40 mM): +
colony formation, 5 min ([1]; peroxycarboxylic acid 40 mM): −
bacterial proliferation, 15 sec ([1]; peroxycarboxylic acid 40 mM): +
bacterial proliferation, 1 min ([1]; peroxycarboxylic acid 40 mM): +
bacterial proliferation, 5 min ([1]; peroxycarboxylic acid 40 mM): −
peracid concentration in composition, 3 days after mixing [2, 8]: 160 mM
peracid concentration in composition, 5 days after mixing ([2]; carboxylic acid 30 mmol + 50% aqueous hydrogen peroxide 45 mmol, day 5): 250 mM
peracid concentration in composition, 22 days after mixing [2, 8]: 650 mM
stability: change of peracid concentration with passage of time (in words) ([2]; summary of Table 3): any decrease in peracid amount was not observed

CCOCCC(=O)OO [Compound 2, 3-ethoxyperoxypropionic acid]
colony formation, 15 sec ([1]; peroxycarboxylic acid 40 mM): +
colony formation, 1 min ([1]; peroxycarboxylic acid 40 mM): +
colony formation, 5 min ([1]; peroxycarboxylic acid 40 mM): −
bacterial proliferation, 15 sec ([1]; peroxycarboxylic acid 40 mM): +
bacterial proliferation, 1 min ([1]; peroxycarboxylic acid 40 mM): +
bacterial proliferation, 5 min ([1]; peroxycarboxylic acid 40 mM): −
stability: change of peracid concentration with passage of time (in words) [2]: any decrease in peracid amount was not observed
peracid concentration in composition, 3 days after mixing [2, 8]: 160 mM
peracid concentration in composition, 6 days after mixing [2, 8]: 310 mM
peracid concentration in composition, 22 days after mixing [2, 8]: 700 mM

CCCOCCC(=O)OO [Compound 3, peroxy-3-propoxypropionic acid]
colony formation, 15 sec ([1]; peroxycarboxylic acid 40 mM): +
colony formation, 1 min ([1]; peroxycarboxylic acid 40 mM): +
bacterial proliferation, 15 sec ([1]; peroxycarboxylic acid 40 mM): +
bacterial proliferation, 1 min ([1]; peroxycarboxylic acid 40 mM): +
bacterial proliferation, 5 min ([1]; peroxycarboxylic acid 40 mM): −
change in peroxycarboxylic acid concentration (storage stability), pH lower than 2 ([3]; pH 1.7): a decrease in peroxycarboxylic acid concentration was faster
storage stability, pH 3.0 ([3]; pH 3.0): significantly high storage stability
change in peroxycarboxylic acid concentration (storage stability), pH 5 or higher ([3]; pH 5.0): a decrease in peroxycarboxylic acid concentration was faster
classification as fifth class of hazardous material in the Fire Defense Law [4]: did not classified in the fifth class of hazardous material
pressure container test result [4]: rank 3
thermal analysis result [4]: no hazardous

CCOCCCC(=O)OO [Compound 24]
colony formation, 15 sec ([1]; peroxycarboxylic acid 40 mM): +
colony formation, 1 min ([1]; peroxycarboxylic acid 40 mM): +
colony formation, 5 min ([1]; peroxycarboxylic acid 40 mM): −
bacterial proliferation, 15 sec ([1]; peroxycarboxylic acid 40 mM): +
bacterial proliferation, 1 min ([1]; peroxycarboxylic acid 40 mM): +
bacterial proliferation, 5 min ([1]; peroxycarboxylic acid 40 mM): −

O=C(CCOCCCl)OO [Compound 28]
colony formation, 15 sec ([1]; peroxycarboxylic acid 40 mM): +
colony formation, 1 min ([1]; peroxycarboxylic acid 40 mM): +
colony formation, 5 min ([1]; peroxycarboxylic acid 40 mM): −
bacterial proliferation, 15 sec ([1]; peroxycarboxylic acid 40 mM): +
bacterial proliferation, 1 min ([1]; peroxycarboxylic acid 40 mM): +
bacterial proliferation, 5 min ([1]; peroxycarboxylic acid 40 mM): −

OO [Hydrogen peroxide, reference compound]
colony formation, 15 sec ([1]; hydrogen peroxide 2000 mM): +
colony formation, 1 min ([1]; hydrogen peroxide 2000 mM): +
colony formation, 5 min ([1]; hydrogen peroxide 2000 mM): +
bacterial proliferation, 15 sec ([1]; hydrogen peroxide 2000 mM): +
bacterial proliferation, 1 min ([1]; hydrogen peroxide 2000 mM): +
bacterial proliferation, 5 min ([1]; hydrogen peroxide 2000 mM): +

O=CCCCC=O [glutaraldehyde]
sterilizing effect to spores [5]: weak sterilizing effect to spores

CC(=O)OO [peracetic acid]
colony formation, 15 sec [1, 9]: +
bacterial proliferation, 15 sec [1, 9]: +
colony formation, 1 min ([6]; Agar culture, reaction time 1 min): +
colony formation, 5 min ([6]; Agar culture, reaction time 5 min): −
bacterial proliferation, 1 min ([6]; Liquid culture, reaction time 1 min): +
bacterial proliferation, 5 min ([6]; Liquid culture, reaction time 5 min): −

COCC(=O)OO [peroxy-methoxyacetic acid, reference compound]
stability: change of peracid concentration with passage of time (in words) [2]: unstable
peracid concentration in composition, 3 days after mixing [2, 8]: 530 mM
peracid concentration in composition, 6 days after mixing [2, 8]: 540 mM
peracid concentration in composition, 10 days after mixing ([2]; carboxylic acid 30 mmol + 50% aqueous hydrogen peroxide 45 mmol, day 10): 380 mM
peracid concentration in composition, 14 days after mixing ([2]; carboxylic acid 30 mmol + 50% aqueous hydrogen peroxide 45 mmol, day 14): 340 mM
peracid concentration in composition, 24 days after mixing ([2]; carboxylic acid 30 mmol + 50% aqueous hydrogen peroxide 45 mmol, day 24): 210 mM
antibacterial effect compared with peracetic acid ([7]; J. Molecular Catalysis B: Enzymatic, 19-20, pp. 499-505 (2002)): weaker antibacterial effect than that of peracetic acid

CCC(=O)OO [peroxypropionic acid]
sterilizing action ([7]; J. Hyg. Epid. Microbiol. Immun., 9, pp. 220-226 (1965)): effective sterilizing action

O=C(CCOCCO)OO [reference compound]
antimicrobial activity compared with Composition 1, Composition 2 ([1]; evaluated in a similar manner to Example 4): lower than that of Composition 1, Composition 2 or the like
